Source: patent publication US4748177A, “Guanine derivatives” (Warner-Lambert Company, priority 1985, dated 1988)

System: T-cells
Experiment: standard test of selective cytotoxicity for T-cells in the presence of 2'-deoxyguanosine
Type: cell-based
Conditions: in the presence of 10 μM of 2'-deoxyguanosine
Experimental: […] activity was measured radiochemically by measuring the formation of [^14 -C]-hypoxanthine from [^14 -C]-inosine [Biomedicine, 33, 39 (1980)] using human erythrocyte as the enzyme source. The same compounds also were found by a standard test [Science, 214, 1137, (1981)] to be selectively cytotoxic for T-cells in the presence of 2'-deoxyguanosine at a similar concentration range. For example, 8-amino-9-[(4-methylphenyl)methyl]guanine is selectively cytotoxic to T-cells at a concentration of about 3.1 μM in the presence of 10 μM of 2'-deoxyguanosine. Similarly, 8-amino-9-[(4-methoxyphenyl)methyl]guanine is selectively cytotoxic to T-cells at concentration of about 1.1 μM in the presence of 10 μM of 2'-deoxyguanosine. On the other hand, these compounds were nontoxic to B-cells in the presence or absence of the same amount of 2'-deoxyguanosine. Since T-cells play a central role in immune response, use of the compounds of the invention is contemplated for the immunoregulation of rejection in transplantation and autoimmune disease such as rheumatoid arthritis, systemic lupus erythematosus, inflammatory bowel disease, cancer, juvenile diabetes, myasthenia gravis, multiple sclerosis, and viral diseases. […]

Row | SMILES | concentration at which selectively cytotoxic to T-cells
1 | COc1ccc(Cn2c(N)nc3c(=O)[nH]c(N)nc32)cc1 [8-amino-9-[(4-methoxyphenyl)methyl]guanine] | about 1.1 μM
2 | Cc1ccc(Cn2c(N)nc3c(=O)[nH]c(N)nc32)cc1 [8-amino-9-[(4-methylphenyl)methyl]guanine] | about 3.1 μM
